In patent US20060153897A1, “Zinc-containing foods” (priority 2001, published 2006):

Columns and labels:
[1] = test system: Salmonella typhimurium TA 100, TA 1535, TA 98 and TA 1537; assay: Mutagenicity test (Ames) using microorganisms; type: cell-based; settings: for mutation-inducing ability: Salmonella typhimurium TA 100, TA 1535, TA 98, TA 1537, compared with solvent control; for growth inhibition: high concentrations
Source text: (§1) As a mutagenicity test (Ames) using microorganisms, mutation-inducing ability of zinc complexes with maltol, picolinic acid, picolinamide, 6-methyl-picolinic acid, L-threonine and L-valine was examined using Salmonella typhimurium TA 100, TA 1535, TA 98 and TA 1537 and Escherichia coli WP 2 uvr A.

[2] = test system: Escherichia coli WP 2 uvr A; assay: Mutagenicity test (Ames) using microorganisms; type: cell-based; settings: compared with solvent control
Source text: as §1

female and male rats = assay: Acute toxicity test; type: in vivo; settings: female and male rats, 2, 8 and 15 days after administration of 2,000 mg/kg
Protocol: (§2) Outside the application of GLP, acute toxicity test was carried out for zinc complexes with maltol, picolinic acid, picolinamide, 6-methyl-picolinic acid, L-threonine and L-valine.

Acute toxicity test = type: in vivo; settings: rat, in vivo
Protocol: as §2

[3] = ligand per se, strain not stated

Cc1cccc(C(=O)[O-])n1.Cc1cccc(C(=O)[O-])n1.[Zn+2] [bis(6-methylpicolinic acid)/zinc complex]
mutation-inducing ability [1]: no mutation-inducing ability
mutation-inducing ability [2]: no mutation-inducing ability
change in normal state and autopsy compared with solvent control group (female and male rats): no special change

CC(C)[C@H](N)C(=O)[O-].CC(C)[C@H](N)C(=O)[O-].[Zn+2] [zinc complex with L-valine]
mutation-inducing ability [1]: no mutation-inducing ability
mutation-inducing ability [2]: no mutation-inducing ability
change in normal state and autopsy compared with solvent control group (female and male rats): no special change

O=C(O)c1ccccn1 [picolinic acid, reference compound]
growth inhibition [1, 3]: growth inhibition at high concentrations

Cc1occc(=O)c1O [maltol, reference compound]
growth inhibition [1, 3]: growth inhibition at high concentrations
LD50 at 15 days (Acute toxicity test; female): 1590 mg/kg
LD50 at 15 days (Acute toxicity test; male): 1680 mg/kg

bis(maltol)/zinc complex [zinc complex with maltol]
mutation-inducing ability [1]: very weakly positive
growth inhibition ([1]; TA 1535 strain): growth inhibition at high concentrations

O=C([O-])c1ccccn1.O=C([O-])c1ccccn1.[Zn+2] [zinc complex with picolinic acid]
mutation-inducing ability [1]: very weakly positive
growth inhibition ([1]; TA 98, TA 1537 strains): growth inhibition at high concentrations
change in normal state and autopsy compared with solvent control group (female and male rats): no special change
